Assay results reported in PMC10970734, “Identification of an Intravenous Injectable NK1 Receptor Antagonist for Use in Traumatic Brain Injury” (International Journal of Molecular Sciences, 2024).

Columns and labels:
[1] = parameters: method as in PMID 20795794, PMID 18042005; conditions: slow infusion 20-30 min; cited from earlier work
[2] = parameters: method as in PMID 20795794; conditions: parent drug; cited from earlier work
NK1R = conditions: cited from earlier work
rodent model of TBI [3] = assay: Cognitive function after TBI, Barnes maze; format: in vivo, Sprague Dawley rats; conditions: rat TBI, 10 mg/kg 30 min post-injury, 10 days
Experimental: Cognitive outcome was assessed using the Barnes maze in order to reduce the potential confounding effects that may be associated with tests such as the Morris water maze. In the Barnes maze, animals were placed under a cover in the centre of an elevated 1.2 m diameter board containing 19 holes around the periphery. One hole contained the entrance to a darkened escape tunnel that was not visible from the surface, relying on the animal to use surrounding visual cues to locate the tunnel. The time, in seconds, for the animal to locate and enter the escape tunnel was recorded. Following pre-training, the effect of injury, and post-injury treatment, on the time taken for the animal to locate the tunnel was measured (Figure 7). […]
Injury was induced in halothane-anesthetized (ProVet) male Sprague Dawley rats (400 ± 20 g) using acceleration-induced impact TBI [29, 93]. […] Blood pressure was monitored, both before and after injury, using a femoral arterial line. […]
Motor and cognitive outcomes in animals (n = 6 per group) were assessed using the rotarod and Barnes maze, respectively, as described in detail elsewhere. […] The rotational speed of the device was increased from 0 to 30 r.p.m. and the duration (in seconds) when the animals either completed the task, fell from the rods, or gripped the rods and spun for two consecutive revolutions rather than walking actively was recorded as the rotarod score. […]

rodent model of TBI [4] = assay: Mortality after severe impact-acceleration TBI; format: in vivo, Sprague Dawley rats; conditions: rat severe TBI, 10 mg/kg 30 min after injury
Experimental: Injury was induced using an impact-acceleration model of TBI which generates a rodent form of diffuse axonal injury, a major feature of clinical head injury. The level of injury induced in these studies was classified as “severe” [60]. In terms of assessing treatment effects, the study was performed in a blinded manner. […] In line with the “severe” nature of the injury, significant mortality rates were observed within the cohort of injured animals. However, the mortality rates varied between the treatment groups. In the “drug vehicle” group, a mortality rate of 30% was observed, which is in line with the nature of the injury.
Injury was induced in halothane-anesthetized (ProVet) male Sprague Dawley rats (400 ± 20 g) using acceleration-induced impact TBI [29, 93]. This model involves impacting a 10 mm diameter, 3 mm thick stainless steel disc fixed centrally to the exposed skull between the lambda and bregma with an accelerating impactor. The impactor was a 450 g brass weight dropped from a height of 2 m. Earlier studies have shown that the impact acceleration injury produces diffuse axonal injury, oedema, BBB opening, Mg^2+ decline, and moderate-to-severe neurologic deficits. All animals were fed and watered ad libitum before the induction of injury. […] Blood pressure was monitored, both before and after injury, using a femoral arterial line. […]

rodent model of TBI [5] = assay: Motor function after TBI, rotarod test; format: in vivo, Sprague Dawley rats; conditions: rat TBI, 10 mg/kg 30 min post-injury
Text: The maximum duration of the task was 120 s.
Injury was induced in halothane-anesthetized (ProVet) male Sprague Dawley rats (400 ± 20 g) using acceleration-induced impact TBI [29, 93]. This model involves impacting a 10 mm diameter, 3 mm thick stainless steel disc fixed centrally to the exposed skull between the lambda and bregma with an accelerating impactor. The impactor was a 450 g brass weight dropped from a height of 2 m. […] All animals were fed and watered ad libitum before the induction of injury. During both surgery and the immediate recovery phase, rat rectal temperature was maintained using a thermostatically controlled heating pad. Immediately after injury, animals were manually ventilated until stable respiration was restored, usually in <5 min. After injury, all wounds were sutured. Blood pressure was monitored, both before and after injury, using a femoral arterial line.
Motor and cognitive outcomes in animals (n = 6 per group) were assessed using the rotarod and Barnes maze, respectively, as described in detail elsewhere [64]. The rotarod consists of a motorized rotating assembly of 18 rods (1 mm in diameter) upon which the animals were placed. The rotational speed of the device was increased from 0 to 30 r.p.m. and the duration (in seconds) when the animals either completed the task, fell from the rods, or gripped the rods and spun for two consecutive revolutions rather than walking actively was recorded as the rotarod score. […] After activating the bright lights and aversive auditory stimulus, the latency (in seconds) for the animal to locate and enter the escape tunnel was recorded. All animals were pretrained on both functional outcome tests twice per day over 5 days before injury to establish a normal, uninjured baseline.

In the case of `C[C@@H](O[C@H]1OCCN(Cc2nc(O)n(P(=O)(O)O)n2)[C@H]1c1ccc(F)cc1)c1cc(C(F)(F)F)cc(C(F)(F)F)c1` [Fosaprepitant, fosaprepitant], the “Time to conversion to aprepitant after end of infusion” value [1] is given as no more than 30 min.

In the case of `C[C@@H](O[C@H]1OCCN(Cc2n[nH]c(=O)[nH]2)[C@H]1c1ccc(F)cc1)c1cc(C(F)(F)F)cc(C(F)(F)F)c1` [aprepitant], the Aqueous solubility [2] is listed as 0.2 µg/mL.

For `CC(=O)N[C@@H](Cc1c[nH]c2ccccc12)C(=O)O` [NAT, N-acetyl-L-tryptophan], the NK1R binding (NK1R) is listed as “lack of NK1R binding”.

In the case of `C[C@]12N[C@H](Cc3ccccc31)c1ccccc12` [MK801], the “Cognitive function, Barnes maze time to locate escape tunnel” value (rodent model of TBI [3]) was “performance returning close to pre-injury by the end of the study period”, the Mortality rate (rodent model of TBI [4]) was 48% and the “Motor function, rotarod score” value (rodent model of TBI [5]; 10 days) was “did not provide any beneficial outcome relative to the drug vehicle”. For the same molecule, the “Recovery of motor function over the 10-day test period” value (rodent model of TBI [5]; rotarod) was “approximately 50%”.
